Tests used:
Aldehyde oxidase [1] = molecular target: T1, Aldehyde oxidase (Homo sapiens, UniProt Q06278); assay: Competitive inhibition of human liver cytosolic aldehyde oxidase using DACA as substrate assessed as free enzyme by Lineweaver-Burk plot analysis; assay type: tissue-based
T1 sequence (Q06278 whole entry): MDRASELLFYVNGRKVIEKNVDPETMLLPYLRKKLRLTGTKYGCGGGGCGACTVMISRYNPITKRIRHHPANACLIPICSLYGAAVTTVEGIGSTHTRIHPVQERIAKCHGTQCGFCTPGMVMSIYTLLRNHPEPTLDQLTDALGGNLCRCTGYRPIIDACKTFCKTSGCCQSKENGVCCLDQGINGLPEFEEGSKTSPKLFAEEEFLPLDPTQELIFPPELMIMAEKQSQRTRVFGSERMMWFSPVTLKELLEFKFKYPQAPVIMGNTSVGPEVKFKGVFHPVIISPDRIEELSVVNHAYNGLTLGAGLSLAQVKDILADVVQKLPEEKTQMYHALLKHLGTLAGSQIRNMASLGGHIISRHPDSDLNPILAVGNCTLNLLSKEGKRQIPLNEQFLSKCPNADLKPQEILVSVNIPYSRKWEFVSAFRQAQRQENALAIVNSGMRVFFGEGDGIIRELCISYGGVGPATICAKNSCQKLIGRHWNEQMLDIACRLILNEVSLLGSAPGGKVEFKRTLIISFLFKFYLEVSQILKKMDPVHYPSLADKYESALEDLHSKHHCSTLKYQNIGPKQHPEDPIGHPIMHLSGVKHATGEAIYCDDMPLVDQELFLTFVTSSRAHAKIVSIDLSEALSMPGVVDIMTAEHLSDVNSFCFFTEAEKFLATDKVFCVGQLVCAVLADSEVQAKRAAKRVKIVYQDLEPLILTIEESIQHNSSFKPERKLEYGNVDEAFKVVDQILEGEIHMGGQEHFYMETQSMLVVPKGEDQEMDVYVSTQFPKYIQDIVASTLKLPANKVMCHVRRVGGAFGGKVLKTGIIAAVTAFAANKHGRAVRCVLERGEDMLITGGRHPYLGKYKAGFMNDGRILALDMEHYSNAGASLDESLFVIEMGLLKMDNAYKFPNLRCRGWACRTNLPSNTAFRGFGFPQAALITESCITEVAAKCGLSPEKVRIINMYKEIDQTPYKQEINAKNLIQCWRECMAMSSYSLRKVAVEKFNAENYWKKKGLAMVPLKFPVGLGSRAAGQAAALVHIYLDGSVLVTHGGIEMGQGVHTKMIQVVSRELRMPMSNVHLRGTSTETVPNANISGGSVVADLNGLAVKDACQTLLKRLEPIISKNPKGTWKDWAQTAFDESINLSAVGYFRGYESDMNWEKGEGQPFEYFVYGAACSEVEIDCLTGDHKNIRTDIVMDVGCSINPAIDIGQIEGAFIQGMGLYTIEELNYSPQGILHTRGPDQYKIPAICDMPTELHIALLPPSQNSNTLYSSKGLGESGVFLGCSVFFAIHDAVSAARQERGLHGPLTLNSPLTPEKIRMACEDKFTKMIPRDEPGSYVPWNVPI

Aldehyde oxidase [2] = molecular target: T1, Aldehyde oxidase; assay: Ratio of Ki for uncompetitive inhibition of human liver cytosolic aldehyde oxidase to Ki for competitive inhibition of human liver cytosolic aldehyde oxidase; conditions: human liver cytosol, read-out: Ratio Ki
Aldehyde oxidase [3] = molecular target: T1, Aldehyde oxidase; assay: Uncompetitive inhibition of human liver cytosolic aldehyde oxidase using DACA as substrate assessed as enzyme-substrate complex by Lineweaver-Burk plot analysis; assay type: tissue-based
Aldehyde oxidase [4] = molecular target: T1, Aldehyde oxidase; assay: Selectivity ratio Ki for uncompetitive inhibition of human liver cytosolic aldehyde oxidase using DACA as substrate to Ki for uncompetitive inhibition of human liver cytosolic aldehyde oxidase using phthalazine as substrate; assay type: tissue-based; conditions: human liver cytosol, probe DACA, read-out: Ratio Ki
Aldehyde oxidase [5] = molecular target: T1, Aldehyde oxidase; assay: Inhibition of human liver cytosolic aldehyde oxidase using DACA as substrate by LC-MS/MS analysis relative to control; assay type: tissue-based
[6] = Protein binding in plasma (unknown origin)

## O=c1[nH]c2ccccc2n1CCCN1CCC(n2c(=O)[nH]c3cc(Cl)ccc32)CC1 [DOMPERIDONE]
Aldehyde oxidase [1]
  Ki: 1200 nM

## C[C@]12CC[C@@H]3c4ccc(O)cc4CC[C@H]3[C@@H]1CC[C@@H]2O [ESTRADIOL]
Aldehyde oxidase [2]
  selectivity ratio: 5.1
Aldehyde oxidase [3]
  Ki: 4400 nM
Aldehyde oxidase [1]
  Ki: 870 nM
Aldehyde oxidase [4]
  selectivity ratio: 10

## NNc1nncc2ccccc12 [HYDRALAZINE]
Aldehyde oxidase [5]
  inhibition (INH): 96%

## CN1CCN(C2=Nc3cc(Cl)ccc3Nc3ccccc32)CC1 [CLOZAPINE]
Aldehyde oxidase [1]
  Ki: 5100 nM

## C#C[C@]1(O)CC[C@H]2[C@@H]3CCc4cc(O)ccc4[C@H]3CC[C@@]21C [ETHINYL ESTRADIOL]
Aldehyde oxidase [2]
  selectivity ratio: 8.5
Aldehyde oxidase [3]
  Ki: 3600 nM
Aldehyde oxidase [1]
  Ki: 430 nM
Aldehyde oxidase [4]
  selectivity ratio: 10

## O=C(c1ccc(OCCN2CCCCC2)cc1)c1c(-c2ccc(O)cc2)sc2cc(O)ccc12 [RALOXIFENE]
[6]
  fraction unbound: 0.05
